The source of these data is ChEMBL document CHEMBL3758124, “Synthesis and biological evaluation of new securinine analogues as potential anticancer agents” (Eur J Med Chem, 2016).

Data set [1] can be described thus: Cytotoxicity against human HCT116 cells assessed as growth inhibition at 10 uM after 72 hrs by ATPlite assay relative to control. To be noted: HCT-116, 72 h, read-out: GI. Type of data set: functional.
The nature of data set [2]: Cytotoxicity against human HCT116 cells assessed as growth inhibition at 1 uM after 72 hrs by ATPlite assay relative to control. Type of data set: functional. The following applies: HCT-116, 72 h, read-out: GI. For orientation: ATP-based viability assays read luminescence as a measure of living cells.
Data set [3] can be described thus: Cytotoxicity against human HCT116 cells assessed as growth inhibition at 20 uM after 72 hrs by ATPlite assay relative to control. The following applies: HCT-116, 72 h, read-out: GI. Type of data set: functional.
The subject of the next data set is MCF7. The data set is described as follows: Cytotoxicity against human MCF7 cells assessed as growth inhibition by CCK8 assay. Type of data set: functional, cell-based.
The subject of data set [4] is A549. The data set is described as follows: Cytotoxicity against human A549 cells after 72 hrs by Coulter counter analysis. Format: functional, cell-based. The following applies: A549, 72 h.
The test system of data set [5] is Plasma. The data set is described as follows: Stability in mouse plasma at 5 uM after 120 mins by LC-MS analysis. To be noted: 2 h. Type of data set: ADME, cell-free.
A short description of data set [6]: Cytotoxicity against human HCT116 cells assessed as growth inhibition after 72 hrs by ATPlite assay. Type of data set: functional, cell-based. To be noted: HCT-116, 72 h.
Data set [7] can be described thus: Cytotoxicity against human HL60 cells assessed as growth inhibition after 72 hrs by ATPlite assay. Format: functional, cell-based. The following applies: HL-60, 72 h.
Data set [8] deals with A549. The data set is described as follows: Cytotoxicity against human A549 cells assessed as growth inhibition after 72 hrs by ATPlite assay. Format: functional, cell-based. The following applies: A549, 72 h.
Data set [9] deals with Plasma. The data set is described as follows: Stability in human plasma at 5 uM after 120 mins by LC-MS analysis. Type of data set: ADME, cell-free. The following applies: 2 h.
The test system of a further data set is A-375. The data set is described as follows: Cytotoxicity against human A375 cells assessed as growth inhibition after 72 hrs by ATPlite assay. Format: functional, cell-based. The following applies: A-375, 72 h.
The subject of data set [10] is Plasma. The data set is described as follows: Stability in rat plasma at 5 uM after 120 mins by LC-MS analysis. Type of data set: ADME, cell-free. The following applies: 2 h.

In general, IC50 refers to the concentration needed to halve the response being measured.

For the molecule `O=C1C=C2C=C(c3ccc(Cl)c(Cl)c3)[C@@H]3C[C@@]2(O1)[C@H]1CCCCN31`, the inhibition of growth at 10 µM in [1] was 61%. Also, the inhibition of growth at 1 µM in data set [2] is 12.3%. The inhibition of growth at 20 µM in [3] turned out to be 80.5%.

`O=C1C=C2C=C[C@@H]3C[C@@]2(O1)[C@H]1CCCCN31` [SECURININE]: the inhibition of growth at 10 µM in [1] was determined as 50.6%. The IC50 is 25000 nM in the data set with MCF7; 25000 nM with A549 [4]; > 10000 nM in [6]; > 10000 nM in data set [7]; > 10000 nM with A549 [8]; 6100 nM in the data set on A-375. In addition, the Stability result in the data set on Plasma [5], in the data set on Plasma [9] and in the data set on Plasma [10] was “Stable” throughout. In addition, the inhibition of growth at 1 µM in data set [2] stood at 7.6%. The inhibition of growth at 20 µM in data set [3] was found to be 90.7%.

As for `O=C1C=C2C=C(c3ccc4ccccc4c3)[C@@H]3C[C@@]2(O1)[C@H]1CCCCN31`, in data set [1], the inhibition of growth at 10 µM was found to be 30.9%. For the same molecule, the inhibition of growth at 1 µM in [2] was determined as 10.8%. In [3], the inhibition of growth at 20 µM worked out at 51.1%.

Regarding `CN(C)c1cccc(C2=CC3=CC(=O)O[C@@]34C[C@@H]2N2CCCC[C@@H]24)c1`, in [1], the inhibition of growth at 10 µM was 52.7%. Moreover, in data set [2], the inhibition of growth at 1 µM was 10.2%. In addition, the inhibition of growth at 20 µM in data set [3] is 75.7%.

Consider `O=C1C=C2C=C(c3ccc4c(c3)Cc3ccccc3-4)[C@@H]3C[C@@]2(O1)[C@H]1CCCCN31`, for which, in [1], the inhibition of growth at 10 µM came out at 53.6%. The inhibition of growth at 1 µM in data set [2] came out at 20.9%. The inhibition of growth at 20 µM in [3] turned out to be 75.1%.

Turning to `O=C1C=C2C=C(c3cccc(C(F)(F)F)c3)[C@@H]3C[C@@]2(O1)[C@H]1CCCCN31`, the inhibition of growth at 10 µM in data set [1] came out at 81.9%. The inhibition of growth at 1 µM in data set [2] turned out to be 21%. In addition, the inhibition of growth at 20 µM in data set [3] was found to be 83.1%.

For `O=C1C=C2C=C(c3cccc(F)c3)[C@@H]3C[C@@]2(O1)[C@H]1CCCCN31`, in data set [1], the inhibition of growth at 10 µM came out at 80.3%. In addition, the inhibition of growth at 1 µM in [2] is 32.1%. In addition, the inhibition of growth at 20 µM in data set [3] amounted to 84.1%.

For the molecule `CC(=O)c1cccc(C2=CC3=CC(=O)O[C@@]34C[C@@H]2N2CCCC[C@@H]24)c1`, in data set [1], the inhibition of growth at 10 µM was 35.3%. The inhibition of growth at 1 µM in data set [2] was determined as 3.6%. In addition, the inhibition of growth at 20 µM in data set [3] amounted to 65%.

`Cc1ccc(C2=CC3=CC(=O)O[C@@]34C[C@@H]2N2CCCC[C@@H]24)cc1`: the inhibition of growth at 10 µM in data set [1] came out at 73%. Further, the inhibition of growth at 1 µM in [2] turned out to be 3.4%. Also, in data set [3], the inhibition of growth at 20 µM came out at 82.9%.

Turning to `COc1cc([C@@H]2c3cc4c(cc3[C@@H](O[C@@H]3O[C@@H]5CO[C@@H](C)O[C@H]5[C@H](O)[C@H]3O)[C@H]3COC(=O)[C@H]23)OCO4)cc(OC)c1O` [ETOPOSIDE], the IC50 in [6] is > 10000 nM; in [7], 860 nM; with A549 [8] it was 590 nM; in the data set with A-375 it was 240 nM.

For `O=C1C=C2C=C(c3cccc(Cl)c3)[C@@H]3C[C@@]2(O1)[C@H]1CCCCN31`, in data set [1], the inhibition of growth at 10 µM came to 93.4%. Also, the IC50 in [6] amounted to 230 nM; in data set [7], 140 nM; in the data set with A549 [8], 110 nM; in the data set with A-375, 80 nM. For the same molecule, the inhibition of growth at 1 µM in data set [2] is 76.6%. The inhibition of growth at 20 µM in [3] worked out at 93%.

On to `COC(=O)c1cccc(C2=CC3=CC(=O)O[C@@]34C[C@@H]2N2CCCC[C@@H]24)c1`, for which the inhibition of growth at 10 µM in data set [1] is 60.2%. In addition, the inhibition of growth at 1 µM in [2] is 4%. For the same molecule, the inhibition of growth at 20 µM in data set [3] was found to be 82.8%.

As for `CC(=O)c1ccc(C2=CC3=CC(=O)O[C@@]34C[C@@H]2N2CCCC[C@@H]24)cc1`, in data set [1], the inhibition of growth at 10 µM came to 11.7%. Also, the inhibition of growth at 1 µM in data set [2] was found to be 2.4%. The inhibition of growth at 20 µM in [3] amounted to 27.3%.

`Cc1cccc(C2=CC3=CC(=O)O[C@@]34C[C@@H]2N2CCCC[C@@H]24)c1`: in [1], the inhibition of growth at 10 µM was determined as 93.3%. Besides, the IC50 in data set [6] came to 280 nM; in data set [7] it was 130 nM; with A549 [8] it was 140 nM; in the data set on A-375 it was 70 nM. Also, the inhibition of growth at 1 µM in [2] amounted to 75.5%. For the same molecule, in data set [3], the inhibition of growth at 20 µM was 92.5%.

`O=C1C=C2C=C(c3ccc4c(c3)OCO4)[C@@H]3C[C@@]2(O1)[C@H]1CCCCN31`: the inhibition of growth at 10 µM in [1] stood at 86.9%. In data set [2], the inhibition of growth at 1 µM was -1.7%. In addition, the inhibition of growth at 20 µM in data set [3] worked out at 90%.

In the case of `COC(=O)c1ccc(C2=CC3=CC(=O)O[C@@]34C[C@@H]2N2CCCC[C@@H]24)cc1`, the inhibition of growth at 10 µM in [1] came out at 8.3%. The inhibition of growth at 1 µM in data set [2] came to 7.2%. For the same molecule, the inhibition of growth at 20 µM in data set [3] is 24.4%.

Take `COc1ccc(C2=CC3=CC(=O)O[C@@]34C[C@@H]2N2CCCC[C@@H]24)cc1`: the inhibition of growth at 10 µM in [1] is 9.4%. The inhibition of growth at 1 µM in data set [2] is 11.7%. In data set [3], the inhibition of growth at 20 µM came to 24.8%.

In the case of `COc1cccc(C2=CC3=CC(=O)O[C@@]34C[C@@H]2N2CCCC[C@@H]24)c1`, the inhibition of growth at 10 µM in data set [1] turned out to be 92.7%. Also, the Stability entry in the data set with Plasma [5], with Plasma [9] and with Plasma [10] was “Stable” in each case. For the same molecule, the IC50 came out at 260 nM in [6], 140 nM in data set [7], 120 nM in the data set on A549 [8] and 80 nM in the data set with A-375. For the same molecule, in [2], the inhibition of growth at 1 µM came to 76.3%. The inhibition of growth at 20 µM in [3] came to 92.8%.

With `O=C1C=C2C=C(c3ccc(F)cc3)[C@@H]3C[C@@]2(O1)[C@H]1CCCCN31`, in [1], the inhibition of growth at 10 µM amounted to 30.7%. Besides, the inhibition of growth at 1 µM in [2] is -2.6%. In addition, in data set [3], the inhibition of growth at 20 µM worked out at 52.5%.

`CN(C)c1ccc(C2=CC3=CC(=O)O[C@@]34C[C@@H]2N2CCCC[C@@H]24)cc1`: the inhibition of growth at 10 µM in data set [1] was determined as 21.5%. For the same molecule, the inhibition of growth at 1 µM in data set [2] was found to be 3.7%. The inhibition of growth at 20 µM in [3] was 47.6%.

Take `O=C1C=C2C=C(c3ccccc3)[C@@H]3C[C@@]2(O1)[C@H]1CCCCN31`: in [1], the inhibition of growth at 10 µM was determined as 86.7%. The inhibition of growth at 1 µM in data set [2] came out at 6.8%. For the same molecule, the inhibition of growth at 20 µM in data set [3] came out at 87.4%.
